{
  "source": "patent US7176234B2",
  "about": "“Derivatives of gambogic acid and analogs as activators of caspases and inducers of apoptosis” (priority 2002, dated 2007)",
  "key": {"[1]": {"tested_on": "T-47D", "experiment": "Caspase cascade activation / apoptosis induction assay (N-(Ac-DEVD)-N'-ethoxycarbonyl-R110 substrate) in T-47D cells", "type": "cell-based, Human", "details": "T47D cells", "procedure": "Human breast cancer cell lines T-47D and ZR-75-1 were grown according to media component mixtures designated by American Type Culture Collection+10% FCS (Invitrogen Corporation), in a 5% CO2-95% humidity incubator at 37° C. T-47D and ZR-75-1 cells were maintained at a cell density between 30 and 80% confluency and for HL-60 at a cell density of 0.1 to 0.6×10^6 cells/ml. Cells were harvested at 600×g and resuspended at 0.65×10^6 cells/mL into appropriate media+10% FCS. An aliquot of 45 μl of cells was added to a well of a 96-well microtiter plate containing 5 μl of a 10% DMSO in RPMI-1640 media solution containing 1.6 to 100 μM of gambogic acid or other test compound (0.16 to 10 μM final). An aliquot of 45 μl of cells was added to a well of a 96-well microtiter plate containing […] of a 10% DMSO in RPMI-1640 media solution without test compound as the control sample. The samples were mixed by agitation and then incubated at 37° C. for 24 h in a 5% CO2-95% humidity incubator. After incubation, the samples were removed from the incubator and 50 μl of a solution containing 20 μM of N-(Ac-DEVD)-N′-ethoxycarbonyl-R110 fluorogenic substrate SEQ ID NO:1 (Cytovia, Inc.; U.S. Pat. No. 6,335,429), 20% sucrose (Sigma), 20 mM DTT (Sigma), 200 mM NaCl (Sigma), 40 mM Na PIPES buffer pH 7.2 (Sigma), and 500 μg/mL lysolecithin (Calbiochem) was added. The samples were mixed by agitation and incubated at room temperature. Using a fluorescent plate reader (Model 1420 Wallac Instruments), an initial reading (T=0) was made approximately 1–2 min after addition of the substrate solution, employing excitation at 485 nm and emission at 530 nm, to determine the background fluorescence of the control sample. After approximately 3 h of incubation, the samples were read for fluorescence as above (T=3 h).\nThe Relative Fluorescence Unit values (RFU) were used to calculate the sample readings as follows: RFU(T=3h)−Control RFU(T=0)=Net RFU(T=3h)\nThe activity of caspase cascade activation was determined by the ratio of the net RFU value for derivatives of gambogic acid to that of control samples. The EC50 (nM) was determined by a sigmoidal dose-response calculation (Prism 2.0, GraphPad Software Inc.).\nMethyl 9,10-dihydro-10-morpholinyl-gambogate and gambogic acid were assayed as described in Example 28 in T47D cells. The samples of cells and testing compound were incubated for 5 h and 24 h, respectively. Table II summarizes the caspase activity (Ratio) and potency (EC50) of methyl 9,10-dihydro-10-morpholinyl-gambogate (compound B) in the 5 h and 24 h assays, in comparison with that of gambogic acid (compound A)."}, "[2]": {"experiment": "Conversion of methyl 9,10-dihydro-10-morpholinyl-gambogate to methyl gambogate in biological media (HPLC)", "type": "physicochemical", "procedure": "A solution of methyl 9,10-dihydro-10-morpholinyl-gambogate in 87.5% RPMI 1640 biological Media (Invitrogen Corporation, Carlsbad, Calif.), 5.6% EtOH, 1.3% DMSO, and 5.6% Cremophor EL at a concentration of 5 mg/ml was stored at 37° C. The amount of methyl 9,10-dihydro-10-morpholinyl-gambogate (compound B) and methyl gambogate (compound C) was measured by integration of the peak area. The HPLC was run in the Beckman System Gold with 32 Karate software under the following conditions: […]"}, "[3]": {"tested_on": "ICR (CD-1) mice", "experiment": "Maximum tolerated dose (MTD) in mice, I.V.", "type": "in vivo", "details": "mouse, in vivo", "procedure": "For acute toxicity studies, 3 ICR (CD-1) mice were used per each dose group. Animals were given a single bolus injection in the tail vein with approximately 100 μl volume of compound formulation or vehicle formulation. Mice body weights were measured daily along with daily observation for clinical abnormalities. The maximum tolerated dose (MTD) was defined as the dose that results in less than 10% decrease in body weight with no clinical abnormalities.\nFor multiple dose studies, the animals were dosed once a day for 5 days.\nTable IV summarizes the MTD of gambogic acid and methyl 9,10-dihydro-10-morpholinyl-gambogate in mice by I.V. administration."}, "[4]": {"experiment": "Pharmacokinetic studies in mice (plasma, LC/MS/MS)", "type": "in vivo, ICR mice", "details": "mice, single I.V. dose 50 mg/kg", "procedure": "ICR mice were administered a single dose of drug into the tail vein. At each time point, 3 animals were sacrificed and the blood was withdrawn by cardiac puncture. The blood cells were spun down and the plasma was collected and frozen immediately in liquid nitrogen. For sample processing, the plasma was thawed and extraction solvent was added along with an internal standard to assess recoveries. The samples were vortexed followed by centrifugation, and the extraction solution was collected and subjected to LC/MS/MS analysis to identify and quantitate the compound plasma concentration. The levels of compound from the three animals at each time point were averaged and the pharmacokinetic parameters calculated using WinNonLin program. Table V summarized the major PK parameters."}, "[5]": {"tested_on": "MX-1 (Breast cancer)", "experiment": "Efficacy in human tumor xenograft mouse model MX-1", "type": "in vivo, human tumor in CD1 nu/nu mice", "details": "MX-1 xenograft, 50 mg/kg, every day, I.V.", "procedure": "(§1) CD1 nu/nu mice were used. Viable tumor bits of transplantable human xenografts approximately 50 mg of trocar or cultured human tumor cells (nx106 cells?) were implanted subcutaneously into the flank region of mice and tumors were allowed to grow to the desired average size of 100 mg. The mice were measured for tumor size and those within the accepted tumor range of 75–125 mg, were randomized into control and treatment groups with 8–9 mice per group. Treatment was initiated on these groups which have an average starting tumor size of 100 mg. The control group was injected with the vehicle used to dissolve the drug. Injections were I.V. via the tail vein. Tumor measurements were taken every other day along with weights of animals and all animals were observed daily for survival. Tumor size was calculated by the equation of: Tumor volume=(length×width^2)/2."}, "[6]": {"tested_on": "SW620 (colorectal cancer)", "experiment": "Efficacy in human tumor xenograft mouse model SW620", "type": "in vivo, human tumor in CD1 nu/nu mice", "details": "75 mg/kg, every day, I.V.", "procedure": "as §1"}, "[7]": {"tested_on": "human tumor xenograft models", "experiment": "Efficacy studies in human tumor xenograft models (text summary, model not named)", "type": "in vivo, human tumor in nu/nu mice", "procedure": "as §1"}},
  "note": "“Also recorded” adds a separate entry of the source. Like-named read-outs stand apart in the source and are kept apart here.",
  "data": [
    {"smiles": "COC(=O)C(C)=CCC12OC(C)(C)C3CC(C1=O)C(N1CCOCC1)C1C(=O)c4c(O)c5c(c(CC=C(C)C)c4OC132)OC(C)(CCC=C(C)C)C=C5", "note": "(stereo not drawn) [B, Methyl 9,10-dihydro-10-morpholinyl-gambogate]", "values": [
      {"measurement": "Activity in the caspase activation / apoptosis induction assay (in words), 5 h", "setting": "[1]; 5 h assay", "result": "not active"},
      {"measurement": "Caspase activity (Ratio), 5 h", "setting": "[1]; 5 h assay", "result": 1.2},
      {"measurement": "EC50", "setting": "[1]; 5 h assay, read-out: Caspase potency EC50, 5 h", "result": "> 10", "unit": "µM"},
      {"measurement": "Activity in the caspase activation / apoptosis induction assay (in words), 24 h", "setting": "[1]; 24 h assay", "result": "active"},
      {"measurement": "Caspase activity (Ratio), 24 h", "setting": "[1]; 24 h assay", "result": 19},
      {"measurement": "EC50", "setting": "[1]; 24 h assay, read-out: Caspase potency EC50, 24 h", "result": 3.8, "unit": "µM"},
      {"measurement": "Conversion to methyl gambogate (reversal of Michael addition) in biological media (in words)", "setting": "[2]; 37° C., RPMI biological media", "result": "reverse to methyl gambogate; also recorded: converted slowly"},
      {"measurement": "Amount in biological media, 0 h", "setting": "[2]; solution of compound B 5 mg/ml in 87.5% RPMI 1640, 37° C., HPLC peak area, 0 h", "result": 92},
      {"measurement": "Amount in biological media, 2 h", "setting": "[2]; solution of compound B 5 mg/ml in 87.5% RPMI 1640, 37° C., HPLC peak area, 2 h", "result": 92},
      {"measurement": "Amount in biological media, 18 h", "setting": "[2]; solution of compound B 5 mg/ml in 87.5% RPMI 1640, 37° C., HPLC peak area, 18 h", "result": 72},
      {"measurement": "Amount in biological media, 48 h", "setting": "[2]; solution of compound B 5 mg/ml in 87.5% RPMI 1640, 37° C., HPLC peak area, 48 h", "result": 49},
      {"measurement": "Amount in biological media, 90 h", "setting": "[2]; solution of compound B 5 mg/ml in 87.5% RPMI 1640, 37° C., HPLC peak area, 90 h", "result": 28},
      {"measurement": "Acute MTD", "setting": "[3]", "result": ">100", "unit": "mg/kg"},
      {"measurement": "Injection site toxicity", "setting": "[3]", "result": "substantially reduced"},
      {"measurement": "Multiple Dose MTD", "setting": "[3]; iv", "result": "Once a day, 5 doses: >100 mg/kg"},
      {"measurement": "Systemic toxicity / tolerability (in words)", "setting": "[3]; iv", "result": "significantly less systemic toxicity than gambogic acid"},
      {"measurement": "CL, Clearance", "setting": "[4]", "result": 2.33, "unit": "mL/min/kg"},
      {"measurement": "T1/2, Terminal half-life", "setting": "[4]", "result": 27.6, "unit": "h"},
      {"measurement": "Vss, Vol. of distribution", "setting": "[4]", "result": 2.12, "unit": "L/kg"},
      {"measurement": "AUC (0-inf), Area under the curve", "setting": "[4]; plasma", "result": "353,021 ng-h/ml"},
      {"measurement": "% Tumor reduction", "setting": "[5]", "result": 60, "unit": "%"},
      {"measurement": "% Tumor reduction", "setting": "[6]", "result": 58, "unit": "%"},
      {"measurement": "Body weight loss / behavioral changes in efficacy studies", "setting": "[7]; several human tumor xenograft models", "result": "no significant body weight loss or abnormal behavioral changes"},
      {"measurement": "Efficacy (in words)", "setting": "[7]; summary of Table VI, gambogic acid at its maximal tolerable dose", "result": "good efficacy"}
    ]}
  ]
}
